{"source": "patent US8067628B2", "about": "(priority 2008, dated 2011)", "key": {"[1]": {"format": "physicochemical", "protocol": "Distilled water used in the synthesis required preliminary preparation to remove oxygen dissolved therein. To this end, a flow of inert gas (argon or nitrogen) was passed through a flask with distilled water for 30 minutes. 0.84 grams (3 mmol) iron sulphate heptahydrate were dissolved in 12 ml prepared distilled water. To this solution, 0.40 g (3.5 mmol) cystamine hydrochloride dissolved in 8 ml water was added to this solution. Nitrogen monoxide flow prepared according to the technique [Yu. V. Karyakin and I. I. Angeov. Chistiye khimicheskiye veshchestva (Pure chemical substances), Moscow: Khimiya publishing house, 1974, 23] was passed through the prepared solution for 1 to 1.5 hours at ˜40° C. until crystals were formed in the solution. Reaction mixture was then allowed to stand at 6 to 8° C. for 15 to 20 hrs; a formed brown-red fine crystalline precipitate was filtered off and dried in air for 24 hours. Yield was […] (16.5%).\nDi-μ-penicillamine-tetranitrosyl di-iron sulphate (Fe2S3N6C10H32O17) (II) was prepared by reacting iron sulphate (II) with D-penicillamine in a ratio 1:3. The reaction was carried out using a standard vacuum line and Shlenk's technology under nitrogen at room temperature. Oxygen was preliminary removed from water using the method of triplicate freezing and pumping off under vacuum. […]"}, "[2]": {"experiment": "NO-donor activity, sensor electrode amiNO-700 in water", "details": "aerobic aqueous solutions; for spontaneous NO generation: 25° C., no chemo-, photo- or enzymatic activation; for duration of NO release: compared with binuclear nitrosyl iron complexes with aromatic thiolyls", "protocol": "The sensor electrode “amiNO-700” of the system “inNO Nitric Oxide Measuring System” (Innovative Instruments, Inc., Tampa, Fla., USA) was used to determine NO generated by the complexes I and II in water. NO concentration was recorded for ˜1,600 seconds (with a step of 0.2 seconds) with concentration of NO donor (0.1 μmol). A standard aqueous solution of NaNO2 (100 μmol) to which a mixture of 0.12M KCl and 2 ml 1M H2SO4 in 18 ml water was added was used to calibrate the electrochemical sensor. All the experiments were carried out in aerobic solutions at temperature 25° C. pH of solutions was measured using the membrane pH-meter “HI 8314” (HANNA Instruments, Germany)."}, "[3]": {"test_system": "line K562 human erythroblastic leukemia and A549 non-small cell lung cancer cells", "experiment": "Cytotoxicity, MTT-test on human cancer cells in vitro", "format": "cell-based", "protocol": "Cells of line K562 human erythroblastic leukemia and A549 non-small cell lung cancer were used as the study object. The cells were grown in the RMPI1640 medium comprising 10% fetal bovine serum at 37° C., 5% CO2 and 100% humidity.\nThe cytotoxic activity testing was carried out by the standard MTT-test using 96-well plates. Seeding density of cells was 5,000 cells in a well. The cells K562 and A549 were incubated with the complexes I and II at concentrations 1 μM, 10 μM or 100 μM for 72 hours.\nMTT-test is based on the capability of dehydrogenases of live cells to reduce unstained MTT-reagent to the blue crystals of formazan crystals soluble in dimethylsulfoxide (DMSO). The optic absorption of stained DMSO solutions was measured on an automated counter. The cytotoxic activity was assessed in percent by the survival of the cells and calculated according to the formula: (mean value of optic absorption in test samples/mean absorption in the control)×100. IC50 was determined by a “dose-effect” curve."}, "[4]": {"test_system": "line K562 cells of human erythroblast leukemia", "experiment": "Apoptotic activity, caspase-3/-7 FLICA (FAM-DEVD-FMK) flow cytometry", "format": "cell-based", "details": "incubation 75 hours", "protocol": "A method for determining activity of caspases is based on the use of fluorochromic inhibitors of caspases (FLICA). These inhibitors are capable of penetrating into a cell while not being cytotoxic. Within the cell FLICA-inhibitor is covalently bound to active caspase.\nThe freeze-dried reagent FAM-DEVD-FMK for determining caspase-3 and caspase-7 was experimentally used to test apoptotic cells. When FAM-DEVD-FMK is added to a cellular population of cells, it penetrates into each cell wherein covalent binding thereof to a large subunit of an active caspase heterodimer occurs and thus, it inhibits enzymatic activity. The reagent covalently bound to the enzyme remains inside the cell. […]\nUpon termination of incubation term, the cells were centrifuged for 5 minutes at 1,200 rpm at room temperature (RT). […] Sample aliquots of induced and non-induced cells were taken, 2 μl reagent propidium iodide (PI) ready for use were added and the mixture was incubated at RT for 10 minutes to stain dead cells.\nFluorescence of all cell specimens was analyzed on a liquid citometer Backton Dikenson Fascaliber using a laser with 488 nm wavelength. […] In a left lower quadrant live cells were determined; in a right lower quadrant positive FLICA cells (FLICA+) were determined; in a left upper quadrant stained PI cells were determined, and in a right upper quadrant stained PI and FLICA+ cells were determined. […]"}}, "note": "Read-outs that look alike come from different tables or passages of the source.", "data": [{"substance": "Di-μ-penicillamine-tetranitrosyl di-iron sulphate [complex II]", "values": [{"measurement": "stability of product in the absence of inert atmosphere", "setting": "[1]", "value": "stable in the absence of inert atmosphere for a long time"}, {"measurement": "spontaneous NO generation", "setting": "[2]", "value": "generate NO in aerobic aqueous solutions"}, {"measurement": "duration of NO release", "setting": "[2]", "value": "prolonged release of NQ"}, {"measurement": "IC50", "setting": "[3]; MTT-test, 72 hours, K562 and A549 cells (cell line of the value not stated), read-out: IC50 (cytotoxic activity, cell survival)", "value": 100, "unit": "µM"}]}, {"substance": "Di-μ-cystamine tetranitrosyl di-iron sulphate [complex I]", "values": [{"measurement": "cells in apoptosis", "setting": "[4]", "value": 77, "unit": "%"}, {"measurement": "initiation of caspase 3 and 7 activity / induction of apoptosis", "setting": "[4]; concentration 50 μl", "value": "exhibited capability of initiating caspase 3 and 7 activity"}, {"measurement": "stability of polycrystals in air", "setting": "[1]", "value": "remain stable in air at room temperature for a rather long time"}, {"measurement": "spontaneous NO generation", "setting": "[2]", "value": "generate NO in aerobic aqueous solutions"}, {"measurement": "duration of NO release", "setting": "[2]", "value": "prolonged release of NQ"}, {"measurement": "IC50", "setting": "[3]", "value": 50, "unit": "µM"}]}]}
